Reference: ChEMBL document CHEMBL1148238, “Design, synthesis and cytotoxicity of 7-deoxy aryl discodermolide analogues” (Bioorg Med Chem Lett, 2004)

Tests used:
Assay type in all cases: functional, cell-based
Conditions in all cases: Homo sapiens
A549 = assay: Cytotoxicity of compound against A549 cell line
MCF7 [1] = assay: Cytotoxicity of compound against MCF-7 cell line
MCF7 [2] = assay: Cytotoxicity of compound against MCF-7/ADR cell line
SK-OV-3 = assay: Cytotoxicity of compound against SKOV-3 cell line

Row | Structure (SMILES) | IC50 (A549) [nM] | IC50 (MCF7 [1]) [nM] | IC50 (MCF7 [2]) [nM] | IC50 (SK-OV-3) [nM]
1 | C=C/C=C\[C@H](C)[C@H](OC(N)=O)[C@@H](C)[C@H](O)[C@@H](C)C/C(C)=C\[C@H](C)[C@@H](O)[C@@H](C)/C=C\CCc1cccc(F)c1 | 650 | 370 | 500 | 400
2 | C=C/C=C\[C@H](C)[C@H](OC(N)=O)[C@@H](C)[C@H](O)[C@@H](C)C/C(C)=C\[C@H](C)[C@@H](O)[C@@H](C)/C=C\CCc1ccsc1 | 4000 | 850 | 4000 | 440
3 | C=C/C=C\[C@H](C)[C@H](OC(N)=O)[C@@H](C)[C@H](O)[C@@H](C)C/C(C)=C\[C@H](C)[C@@H](O)[C@@H](C)/C=C\CCc1cc(F)cc(F)c1 | 1000 | 600 | 2000 | 360
4 | C=C/C=C\[C@H](C)[C@H](OC(N)=O)[C@@H](C)[C@H](O)[C@@H](C)C/C(C)=C\[C@H](C)[C@@H](O)[C@@H](C)/C=C\CCc1ccc(Oc2ccccc2)cc1 | 10000 | 4000 | 10000 | 10000
5 | C=C/C=C\[C@H](C)[C@H](OC(N)=O)[C@@H](C)[C@H](O)[C@@H](C)C/C(C)=C\[C@H](C)[C@@H](O)[C@@H](C)/C=C\CCc1ccc(C)c(F)c1 | 4000 | 1000 | 4000 | 1000
6 | C=C/C=C\[C@H](C)[C@H](OC(N)=O)[C@@H](C)[C@H](O)[C@@H](C)C/C(C)=C\[C@H](C)[C@@H](O)[C@@H](C)/C=C\CCc1cccc(O)c1C | 910 | 490 | 1000 | 270
7 | C=C/C=C\[C@H](C)[C@H](OC(N)=O)[C@@H](C)[C@H](O)[C@@H](C)C/C(C)=C\[C@H](C)[C@@H](O)[C@@H](C)/C=C\CCc1cccc(O)c1 | 190 | 130 | 390 | 40
8 | C=C/C=C\[C@H](C)[C@H](OC(N)=O)[C@@H](C)[C@H](O)[C@@H](C)C/C(C)=C\[C@H](C)[C@@H](O)[C@@H](C)/C=C\CCc1ccc(C)c(O)c1 | 4000 | 770 | 4000 | 410
9 | C=C/C=C\[C@H](C)[C@H](OC(N)=O)[C@@H](C)[C@H](O)[C@@H](C)C/C(C)=C\[C@H](C)[C@@H](O)[C@@H](C)/C=C\CCc1sccc1C | 790 | 370 | 620 | 370
10 | C=C/C=C\[C@H](C)[C@H](OC(N)=O)[C@@H](C)[C@H](O)[C@@H](C)C/C(C)=C\[C@H](C)[C@@H](O)[C@@H](C)/C=C\CCc1cccc(OC)c1 | 600 | 330 | 500 | 370
11 | C=C/C=C\[C@H](C)[C@H](OC(N)=O)[C@@H](C)[C@H](O)[C@@H](C)C/C(C)=C\[C@H](C)[C@@H](O)[C@@H](C)/C=C\CCc1ccccc1 | 510 | 480 | 560 | 350
12 | C=C/C=C\[C@H](C)[C@H](OC(N)=O)[C@@H](C)[C@H](O)[C@@H](C)C/C(C)=C\[C@H](C)[C@@H](O)[C@@H](C)/C=C\CCc1cccc(Cl)c1 | 580 | 400 | 650 | 380
13 | C=C/C=C\[C@H](C)[C@H](OC(N)=O)[C@@H](C)[C@H](O)[C@@H](C)C/C(C)=C\[C@H](C)[C@@H](O)[C@@H](C)/C=C\CCc1cc(O)cc(O)c1 | 310 | 160 | > 1000 | 40
